Data taken from ChEMBL document CHEMBL4837201, “Increased antibacterial properties of indoline-derived phenolic Mannich bases” (Eur J Med Chem, 2021).
Values after ≈ are worked out from the molar mass of the structure shown.

How the values were obtained:
Enterococcus faecalis [1] = test: Antibacterial activity against Enterococcus faecalis ATCC 29212 assessed as inhibition of bacterial growth incubated for 16 to 24 hrs by broth microdilution method; type: functional; conditions: time 16-24 hrs
Staphylococcus aureus [2] = test: Antibacterial activity against Staphylococcus aureus ATCC 6538 assessed as inhibition of bacterial growth incubated for 16 to 24 hrs by broth microdilution method; type: functional; conditions: time 16-24 hrs
[3] = Antioxidant activity assessed as DPPH radical scavenging activity at 10 ug/ml by DPPH assay relative to control; type: functional; conditions: dose 10.0 µg/ml
Staphylococcus aureus [4] = test: Antibacterial activity against methicillin-sensitive Staphylococcus aureus ATCC 25923 assessed as inhibition of bacterial growth incubated for 16 to 24 hrs by broth microdilution method; type: functional; conditions: time 16-24 hrs
[5] = tested on: Staphylococcus epidermidis; test: Antibacterial activity against Staphylococcus epidermidis ATCC 12228 assessed as inhibition of bacterial growth incubated for 16 to 24 hrs by broth microdilution method; type: functional; conditions: time 16-24 hrs
Bacillus subtilis = test: Antibacterial activity against Bacillus subtilis ATCC 6633 assessed as inhibition of bacterial growth incubated for 16 to 24 hrs by broth microdilution method; type: functional; conditions: time 16-24 hrs
Staphylococcus aureus [6] = test: Antibacterial activity against methicillin-resistant Staphylococcus aureus CIP106760 assessed as inhibition of bacterial growth incubated for 16 to 24 hrs by broth microdilution method; type: functional; conditions: time 16-24 hrs
Enterococcus faecalis [7] = test: Antibacterial activity against vancomycin-resistant Enterococcus faecalis ATCC 51299 assessed as inhibition of bacterial growth incubated for 16 to 24 hrs by broth microdilution method; type: functional; conditions: time 16-24 hrs
[8] = Toxicity in Saccharomyces cerevisiae ATCC 2601 assessed as reduction in cell viability measured after 24 hrs by microdilution method; conditions: for IC50 at 24 h: Saccharomyces cerevisiae, Saccharomyces cerevisiae ATCC 2601 cells
[9] = Cytotoxicity against human HaCaT cells assessed as cell viability at 28 uM after 24 hrs by MTT assay; type: cell-based; conditions: read-out: Activity
HaCaT [10] = test: Cytotoxicity against human HaCaT cells assessed as cell viability at 50 uM after 24 hrs by MTT assay; type: cell-based; conditions: hacat, 24 h, 50 µM
HaCaT [11] = test: Cytotoxicity against human HaCaT cells assessed as reduction in cell viability at 50 uM after 24 hrs by MTT assay; type: cell-based
[12] = Toxicity in Artemia salina assessed as mortality at 10 ug/ml measured after 24 hrs; conditions: at 10 µg/mL

Compound	MBC (Enterococcus faecalis [1]) [µM]	MIC (Enterococcus faecalis [1]) [µM]	MBC (Staphylococcus aureus [2]) [µM]	MIC (Staphylococcus aureus [2]) [µM]	Activity [3] [%]	MBC (Staphylococcus aureus [4]) [µM]	MIC (Staphylococcus aureus [4]) [µM]	MBC [5] [µM]	MIC [5] [µM]	MBC (Bacillus subtilis) [µM]	MIC (Bacillus subtilis) [µM]	MBC (Staphylococcus aureus [6]) [µM]	MIC (Staphylococcus aureus [6]) [µM]	MBC (Enterococcus faecalis [7]) [µM]	MIC (Enterococcus faecalis [7]) [µM]	IC50 at 24 h [8] [µM]	further results
Cc1ccc(C(c2cc([N+](=O)[O-])ccc2O)N2CCc3cc(Cl)ccc32)cc1 (configuration not stated)	9.19 (≈ 3.63 µg/mL)	1.15 (≈ 0.454 µg/mL)	< 158	19.8 (≈ 7.82 µg/mL)	> 80	36.8 (≈ 14.5 µg/mL)	2.3 (≈ 0.908 µg/mL)	37.7 (≈ 14.9 µg/mL)	75.4 (≈ 29.8 µg/mL)	151 (≈ 59.6 µg/mL)	37.7 (≈ 14.9 µg/mL)	4.59 (≈ 1.81 µg/mL)	1.15 (≈ 0.454 µg/mL)	9.19 (≈ 3.63 µg/mL)	2.3 (≈ 0.908 µg/mL)	–	–
Cc1ccc(C(c2cc([N+](=O)[O-])ccc2O)N2CCc3cc(O)ccc32)cc1 (configuration not stated)	108 (≈ 40.7 µg/mL)	135 (≈ 50.8 µg/mL)	332 (≈ 125 µg/mL)	166 (≈ 62.6 µg/mL)	> 80	542 (≈ 204 µg/mL)	67.7 (≈ 25.5 µg/mL)	302 (≈ 114 µg/mL)	37.8 (≈ 14.2 µg/mL)	> 9.43	2.4 (≈ 0.903 µg/mL)	108 (≈ 40.7 µg/mL)	67.7 (≈ 25.5 µg/mL)	108 (≈ 40.7 µg/mL)	135 (≈ 50.8 µg/mL)	–	–
COc1ccc2c(c1)CCN2C(c1ccc(C)cc1)c1cc([N+](=O)[O-])ccc1O (configuration not stated)	160 (≈ 62.5 µg/mL)	10 (≈ 3.9 µg/mL)	80 (≈ 31.2 µg/mL)	20 (≈ 7.81 µg/mL)	–	160 (≈ 62.5 µg/mL)	20 (≈ 7.81 µg/mL)	4.71 (≈ 1.84 µg/mL)	< 1.18	4.71 (≈ 1.84 µg/mL)	< 1.18	40 (≈ 15.6 µg/mL)	10 (≈ 3.9 µg/mL)	160 (≈ 62.5 µg/mL)	20 (≈ 7.81 µg/mL)	–	–
NYSTATIN	–	–	–	–	–	–	–	–	–	–	–	–	–	–	–	–	IC50 [8]: 3.31 µM
Cc1ccc(C(c2cc([N+](=O)[O-])ccc2O)N2CCc3ccccc32)cc1 (configuration not stated)	86.7 (≈ 31.2 µg/mL)	10.8 (≈ 3.89 µg/mL)	43.4 (≈ 15.6 µg/mL)	10.8 (≈ 3.89 µg/mL)	> 80	347 (≈ 125 µg/mL)	21.3 (≈ 7.68 µg/mL)	–	–	–	–	5.42 (≈ 1.95 µg/mL)	2.71 (≈ 0.977 µg/mL)	173 (≈ 62.4 µg/mL)	21.7 (≈ 7.82 µg/mL)	> 100	viability at 24 h, 28 µM [9]: 20%
Cc1ccccc1C(c1cc([N+](=O)[O-])ccc1O)N1CCc2cc(Br)ccc21 (configuration not stated)	8.89 (≈ 3.91 µg/mL)	1.11 (≈ 0.488 µg/mL)	4.45 (≈ 1.95 µg/mL)	1.11 (≈ 0.488 µg/mL)	–	35.6 (≈ 15.6 µg/mL)	2.22 (≈ 0.975 µg/mL)	< 1.18	< 1.18	< 1.18	< 1.18	1.11 (≈ 0.488 µg/mL)	1.11 (≈ 0.488 µg/mL)	142 (≈ 62.4 µg/mL)	4.45 (≈ 1.95 µg/mL)	> 100	Activity (HaCaT [10]): Toxic; Activity (HaCaT [11]): Toxic
Cc1ccc(C(c2cc([N+](=O)[O-])ccc2O)N2CCc3cc(Br)ccc32)cc1 (configuration not stated)	81.1 (≈ 35.6 µg/mL)	5.07 (≈ 2.23 µg/mL)	< 142	17.8 (≈ 7.82 µg/mL)	> 80	81.1 (≈ 35.6 µg/mL)	10.1 (≈ 4.44 µg/mL)	4.71 (≈ 2.07 µg/mL)	9.43 (≈ 4.14 µg/mL)	9.43 (≈ 4.14 µg/mL)	4.71 (≈ 2.07 µg/mL)	20.3 (≈ 8.92 µg/mL)	5.07 (≈ 2.23 µg/mL)	162 (≈ 71.2 µg/mL)	10.1 (≈ 4.44 µg/mL)	–	–
O=[N+]([O-])c1ccc(O)c(C(c2ccc(Cl)cc2)N2CCc3ccccc32)c1 (configuration not stated)	> 9.86	1.23 (≈ 0.468 µg/mL)	2.47 (≈ 0.941 µg/mL)	1.23 (≈ 0.468 µg/mL)	–	9.86 (≈ 3.75 µg/mL)	2.47 (≈ 0.941 µg/mL)	–	–	–	–	< 1.23	1.23 (≈ 0.468 µg/mL)	19.7 (≈ 7.5 µg/mL)	1.23 (≈ 0.468 µg/mL)	> 100	mortality at 24 h, 10 ug/ml [12]: < 15%
